Measurements from PubChem BioAssay (NCI).
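How tested: cells in 96-well plates exposed to compound for 48 hours at five concentrations. Here, GI50 denotes the concentration required for 50% inhibition of growth. TGI: concentration producing complete growth inhibition.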

Columns and labels:
Assay in all cases: DTP human tumour cell line panel, 48 h
NCI-H522 lung = system: NCI-H522 lung
TK-10 renal = system: TK-10 renal
SNB-19 CNS = system: SNB-19 CNS
MALME-3M melanoma = system: MALME-3M melanoma
EKVX NSCLC = system: EKVX NSCLC
SK-OV-3 ovarian = system: SK-OV-3 ovarian
CAKI-1 renal = system: CAKI-1 renal
HOP-62 NSCLC = system: HOP-62 NSCLC
UACC-62 melanoma = system: UACC-62 melanoma
SR leukemia = system: SR leukemia

Compound	GI50 (NCI-H522 lung)	TGI (NCI-H522 lung)	GI50 (TK-10 renal)	TGI (TK-10 renal)	GI50 (SNB-19 CNS)	TGI (SNB-19 CNS)	GI50 (MALME-3M melanoma)	TGI (MALME-3M melanoma)	GI50 (EKVX NSCLC)	TGI (EKVX NSCLC)	GI50 (SK-OV-3 ovarian)	TGI (SK-OV-3 ovarian)	GI50 (CAKI-1 renal)	TGI (CAKI-1 renal)	GI50 (HOP-62 NSCLC)	TGI (HOP-62 NSCLC)	GI50 (UACC-62 melanoma)	TGI (UACC-62 melanoma)	TGI (SR leukemia)	GI50 (SR leukemia)
C=C1C(=O)O[C@H]2[C@H]1CC/C(COC(=O)c1ccc(C(=O)O)s1)=C\CC[C@@]1(C)O[C@@H]21	1.93 µM	3.87 µM	1.64 µM	3.44 µM	3.17 µM	11.6 µM	2.44 µM	4.25 µM	2.21 µM	5.68 µM	12.3 µM	25.1 µM	1.71 µM	3.11 µM	6.96 µM	20.2 µM	1.65 µM	3.23 µM	–	–
O=C1c2cccc3cc([N+](=O)[O-])cc(c23)C(=O)N1CCCN1CCN(CCCN2C(=O)c3cccc4cc([N+](=O)[O-])cc(c34)C2=O)CC1	–	–	–	16 µM	–	> 100 µM	–	25.3 µM	–	> 100 µM	–	46.8 µM	–	–	–	33.8 µM	–	1.65 µM	–	–
COc1ccc(/C=[N+](\[O-])[C@H](COCc2ccccc2)c2ccccc2)cc1	–	> 100 µM	–	> 100 µM	–	> 100 µM	–	> 100 µM	–	> 100 µM	–	> 100 µM	–	–	–	> 100 µM	–	–	–	–
CC/C=C\C[C@H](O)C/C=C1/C(=O)C=C[C@@H]1C/C=C\CCCC(N)=O	1.3 µM	2.67 µM	3.16 µM	6.95 µM	7.43 µM	21.6 µM	2.06 µM	5.23 µM	4.29 µM	15.7 µM	3.96 µM	12.8 µM	1.62 µM	3.92 µM	2.99 µM	7.77 µM	1.36 µM	3.36 µM	–	–
Cc1cc(O)cc(C)c1/C=C/c1cncc(C(=O)N(C)C)c1	> 25 µM	> 25 µM	> 25 µM	> 25 µM	> 25 µM	> 25 µM	> 25 µM	> 25 µM	> 25 µM	> 25 µM	> 25 µM	> 25 µM	> 25 µM	> 25 µM	> 25 µM	> 25 µM	> 25 µM	> 25 µM	–	–
COc1cccc2c1C1=CC(=O)CCC1C(C)(C)O2 (stereo not given)	–	> 100 µM	–	> 100 µM	–	> 100 µM	–	> 100 µM	–	> 100 µM	–	> 100 µM	–	> 100 µM	–	> 100 µM	–	> 100 µM	–	–
CCCN(CCC)c1c([N+](=O)[O-])cc(S(N)(=O)=O)cc1[N+](=O)[O-]	–	31.5 µM	–	–	–	41.3 µM	–	33 µM	–	37.5 µM	–	31.8 µM	–	26.4 µM	–	32 µM	–	32.8 µM	57.4 µM	–
CC(C)(C)C([O-])=C1C(=O)c2ccccc2C1=O.CC(C)(C)C([O-])=C1C(=O)c2ccccc2C1=O.CC[O-].CC[O-].[Ti+4]	21.7 µM	54.2 µM	–	–	40.8 µM	> 100 µM	17.3 µM	38.5 µM	21.7 µM	63.9 µM	39.9 µM	> 100 µM	28 µM	81.7 µM	37.7 µM	> 100 µM	11.9 µM	28.8 µM	–	–
Cn1cc(NC(=O)c2cc(NC(=O)CCCCCC(=O)Nc3cc(C(=O)Nc4cc(C(=O)NCCC(=N)N)n(C)c4)n(C)c3)cn2C)cc1C(=O)NCCC(=N)N	–	–	–	> 100 µM	–	> 100 µM	–	> 100 µM	–	> 100 µM	–	> 100 µM	–	> 100 µM	–	–	–	> 100 µM	–	–
CCOC(=O)/C=C(/CN1C(=O)c2ccccc2C1=O)c1ccccc1	–	> 100 µM	–	> 100 µM	–	> 100 µM	–	> 100 µM	–	> 100 µM	–	> 100 µM	–	> 100 µM	–	> 100 µM	–	> 100 µM	–	–
Cn1nnnc1[N-]Cc1ccccc1.[Au+].c1ccc([PH+](c2ccccc2)c2ccccc2)cc1	–	–	2.46 µM	5.02 µM	3.61 µM	13.1 µM	1.64 µM	3.39 µM	4.08 µM	5.78 µM	16.6 µM	30.3 µM	2.29 µM	4.99 µM	16 µM	30 µM	1.72 µM	7.12 µM	–	–
NC(=O)c1ccccc1NC(=O)C(=O)C(c1cnc2ccc([N+](=O)[O-])cc2n1)[N+](=O)[O-] (stereo not given)	–	> 100 µM	–	> 100 µM	–	> 100 µM	–	> 100 µM	–	> 100 µM	–	> 100 µM	–	> 100 µM	–	> 100 µM	–	> 100 µM	–	–
OCC1OC(N2C=C(c3nc4ccccc4s3)C3C=CC=CC32)C(O)C1O (stereo not given)	> 50 µM	> 50 µM	6.65 µM	21.9 µM	18.9 µM	> 50 µM	–	–	6.27 µM	25.4 µM	28.2 µM	> 50 µM	9.32 µM	22 µM	16 µM	> 50 µM	8.92 µM	19 µM	> 50 µM	2.34 µM
COc1cc2ccc3c4cc(OC)c(OCc5ccccc5)cc4cnc3c2cc1OC	–	> 100 µM	–	> 100 µM	–	–	–	> 100 µM	–	> 100 µM	–	> 100 µM	–	> 100 µM	–	> 100 µM	–	> 100 µM	–	–
O=C(N/N=C/c1ccc(F)cc1)c1[nH]c2ccc(I)cc2c1-c1ccccc1	0.257 µM	1.74 µM	19.7 µM	> 100 µM	2.31 µM	> 82.1 µM	–	–	0.47 µM	> 26.9 µM	0.464 µM	10.7 µM	0.399 µM	56.1 µM	0.577 µM	13.6 µM	0.324 µM	> 100 µM	3.37 µM	0.297 µM
CCCCCCCCCCCC(=O)C1=C(O)C(O)CCC1=O (stereo not given)	–	33.1 µM	–	49 µM	–	49.4 µM	–	32 µM	–	34.1 µM	–	67.2 µM	–	70.6 µM	–	40.4 µM	–	25.5 µM	–	–
NC(N)=N/N=C/c1c(-c2cc(Cl)sc2Cl)nc2n1CCS2	20.4 µM	> 50 µM	8.65 µM	15.8 µM	–	–	–	–	9.21 µM	18.1 µM	–	–	12.8 µM	23.2 µM	8.87 µM	15.8 µM	8.62 µM	16 µM	20.7 µM	8.04 µM
